Patent US20060045892A1, “Cosmetic compositions” (priority 2004, published 2006)

Legend:
[1] = test system: skin redness, skin inflammation, irritation and skin aging; assay: Materials tested for usefulness in the present invention (improving skin appearance, reducing skin redness, inflammation, irritation); format: in vivo, humans; conditions: topical; related materials tested
skin = assay: Skin irritation by the applied material; format: in vivo, humans; conditions: topical

SMILES	usefulness (activity) in the present invention [1]	irritation (reddening) of the skin to which it is applied (skin)
CC1(C)[C@H]2C[C@H]1[C@@](C)(O)[C@@H](O)C2 [(1R,2R,3S,5S-(−))-pinanediol]	do not work	–
CC1CCC(C(C)C)C(O)C1 (stereo not drawn) [menthol]	not to be useful	can irritate
O=C(O)C1CCCCC1 [cyclohexyl carboxylic acid]	not to be useful	–
OCCCCC1CCCCC1 [4-cyclohexyl-1-butanol]	not to be useful	–
C1=CCCCC1 [cyclohexene]	not to be useful	–
OC1CCCC1O (stereo not drawn) [1,2-cyclopentanediol]	do not work	–
CC1(O)CCCCC1 [1-methylcyclohexanol]	not to be useful	–
OCC1(CO)CC2C=CC1C2 (stereo not drawn) [5-norborene-2,2-dimethanol]	do not work	–
CC(=O)OC1CCCCC1 [cyclohexyl acetate]	not to be useful	–
C1CCCCC1 [cyclohexane]	not to be useful	–
ClC1CCCCC1 [cyclohexyl chloride]	not to be useful	–
